These are literature values, as cited in publication PMC11125331, “Pharmaceutical Compounding in Veterinary Medicine: Suspension of Itraconazole” (Pharmaceutics, 2024).

On the set-up of series [1]: method as in PMID 28627123.
The subject of series [2] is dogs. Set-up: method as in earlier work.
In series [3] the test system is dogs. Further details: method as in PMID 35245984, PMID 34109637. The following applies: orally at 10 mg/kg.
In a further series the test system is cats. Further details: method as in PMID 35245984, PMID 34109637. Conditions: punctual administrations.

Where two headings read alike, the source gives them in different places.

Consider `CCC(C)n1ncn(-c2ccc(N3CCN(c4ccc(OCC5COC(Cn6cncn6)(c6ccc(Cl)cc6Cl)O5)cc4)CC3)cc2)c1=O` (centres unmarked) [Itraconazole], for which the “Biopharmaceutical Classification System class” value is on record as “class II”. In addition, in series [1], the “Concentration in skin and hair relative to plasma levels” value is “ten times higher than plasma levels”. The “log P (n-octanol/water)” value (at pH 8.1) was 5.66. The Solubility (in 0.1 M chlorhydric acid (HCl)) was 4 to 6 µg/mL. Further, the Solubility (in water) is 0.001 to 0.004 µg/mL.
On to `OC[C@@H](O)[C@H](O)[C@@H](O)CO` [xylitol], for which the Adverse effects entry with dogs [2] was “can cause severe hypoglycemia”.
For polysorbate 80, the Adverse effects result with dogs [3] is “produces cardiovascular changes and hypersensitivity effects”. In the series on cats, the Safety result is listed as “safe”.

As a reminder, the Solubility is the dissolved amount per volume that the medium holds.
